Here are results for 34 compounds from patent US5814631A, “Quinazoline derivatives and applications thereof” (Suntory Limited, priority 1995, dated 1998).

Molecules are shown by their SMILES.

The target in the assay is T1, human heart chymase (Homo sapiens, UniProt P23946).
T1 sequence (P23946 22-247): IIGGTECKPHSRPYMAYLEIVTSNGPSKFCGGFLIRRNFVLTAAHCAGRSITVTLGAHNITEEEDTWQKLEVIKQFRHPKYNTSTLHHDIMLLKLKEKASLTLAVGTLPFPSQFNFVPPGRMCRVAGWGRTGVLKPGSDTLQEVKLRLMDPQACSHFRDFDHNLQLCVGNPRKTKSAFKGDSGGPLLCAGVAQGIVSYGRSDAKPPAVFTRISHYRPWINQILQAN
The assay can be described thus: biochemical. As to conditions: Chymase inhibitive activity (IC50), Ang I substrate, 37° C., 30 min, pH 7.5.
Method: That is, to 10 μl of a 20 mM trisphosphate buffer (pH 7.5) containing 2MKCl were added 10 μl of purified chymase and 5 μl of a dimethylsulfoxide (hereinafter referred to as DMSO) solution of the test sample. The mixture was preincubated at 37° C. for 10 minutes, then 25 μl of a 1 mM Ang I solution was added and the mixture preincubated at 37° C. for 30 minutes. Next, 50 μl of 30% acetic acid was added to stop the enzymatic reaction. At the same time, a blind test was performed by adding, instead of the test sample solution, 5 μl of DMSO and performing the same reaction.
The reacted solution was subjected to high performance liquid chromatography using Develosil ODS-5 (made by Nomura Kagaku, .phi.4.6 mm×150 mm) and developed at a flow rate of 2.0 ml/min in 0.05% TFA by a straight concentration gradient raising the acetonitrile from 0% to 60% over 10 minutes. This was monitored by the absorbance at 210 nm and the peaks identified by comparison with standard samples of Ang I and Ang II. The peak areas were measured by an integrating meter to quantitatively analyze the Ang I and Ang II and calculate the chymase activity.
With `O=C(Cn1c(=O)n(S(=O)(=O)c2ccc(Cl)cc2)c(=O)c2ccc(Cl)cc21)Nc1ccc(CN2CCOCC2)cc1` [Example 44, [7-chloro-3-(4-chlorobenzenesulfonyl)-2,4(1H,3H)-quinazolinedion-1-yl]-N-(4-morpholinomethylphenyl)acetamide], half-maximal inhibition (IC50) required 560 nM.
The result for `O=C(Cn1c(=O)n(S(=O)(=O)c2ccc(Cl)cc2)c(=O)c2ccc(Cl)cc21)Nc1cccc(O)c1` [Example 40, [7-chloro-3-(4-chlorobenzenesulfonyl)-2,4(1H,3H)-quinazolinedion-1-yl]-N-(3-hydroxyphenyl)acetamide] reads 110 nM; that for `Cn1ccc(S(=O)(=O)n2c(=O)c3ccc(Cl)cc3n(CC(=O)Nc3cccnc3)c2=O)c1` [Example 103, [7-chloro-3-(1-methylpyrrole-3-sulfonyl)-2,4(1H,3H)-quinazolinedion-1-yl]-N-(3-pyridyl)acetamide], 4600 nM.
The result for `O=C(Cn1c(=O)n(S(=O)(=O)c2ccc(Cl)cc2)c(=O)c2ccc(Cl)cc21)NCc1ccccc1` [Example 80, [7-chloro-3-(4-chlorobenzenesulfonyl)-2,4(1H,3H)-quinazolinedion-1-yl]-N-benzylacetamide] reads 140 nM; that for `O=c1[nH]c2cc(Cl)ccc2c(=O)n1S(=O)(=O)c1ccc(Cl)cc1F` [Example 134, 7-chloro-3-(4-chloro-2-fluorobenzenesulfonyl)-2,4(1H,3H)-quinazolinedione], 1800 nM; that for `Nc1ccccc1Cn1c(=O)n(S(=O)(=O)c2ccc(Cl)cc2)c(=O)c2ccc(Cl)cc21` [Example 75, 1-(2-aminobenzyl)-7-chloro-3-(4-chlorobenzenesulfonyl)-2,4(1H,3H)-quinazolinedione], 180 nM.
For the compound `O=C(Cn1c(=O)n(S(=O)(=O)c2ccc(Cl)cc2)c(=O)c2ccc(Cl)cc21)Nc1ccc2[nH]ccc2c1` [Example 82, [7-chloro-3-(4-chlorobenzenesulfonyl)-2,4(1h,3H)-quinazolinedion-1-yl]-N-(5-indolyl)acetamide], half-maximal inhibition (IC50) required 51 nM.
For `O=C(O)c1cccc(Cn2c(=O)n(S(=O)(=O)c3ccc(Cl)cc3)c(=O)c3ccc(Cl)cc32)c1` [Example 66, 1-(3-carboxybenzyl)-7-chloro-3-(4-chlorobenzenesulfonyl)-2,4(1H,3H)-quinazolinedione] the value was 240 nM.
The result for `O=C(Cn1c(=O)n(S(=O)(=O)c2ccc(Cl)cc2)c(=O)c2ccc(Cl)cc21)Nc1ccc(Cl)cc1` [Example 140, [7-chloro-3-(4-chlorobenzenesulfonyl)-2,4(1H,3H)-quinazolinedion-1-yl]-N-(4-chlorophenyl)acetamide] reads 60 nM; that for `O=C(Cn1c(=O)n(S(=O)(=O)c2ccc(Cl)cc2)c(=O)c2ccc(Cl)cc21)Nc1ccncc1` [Example 54, [7-chloro-3-(4-chlorobenzenesulfonyl)-2,4(1H,3H)-quinazolinedion-1-yl]-N-(4-pyridyl)acetamide], 34 nM; that for `O=C(Nc1cccnc1)c1cccc(Cn2c(=O)n(S(=O)(=O)c3ccc(Cl)cc3)c(=O)c3ccc(Cl)cc32)c1` [Example 68, 7-chloro-3-(4-chlorobenzenesulfonyl)-1-(3-(3-pyridyl)aminocarbonyl-benzyl)-2,4(1H,3H)-quinazolinedione], 110 nM.
The result for `O=C(Cn1c(=O)n(S(=O)(=O)c2ccc(Cl)cc2)c(=O)c2ccc(Cl)cc21)Nc1ccc(O)cc1` [Example 39, [7-chloro-3-(4-chlorobenzenesulfonyl)-2,4(1H,3H)-quinazolinedion-1-yl]-N-(4-hydroxyphenyl)acetamide] reads 65 nM; that for `N[C@@H](Cc1ccc(NC(=O)Cn2c(=O)n(S(=O)(=O)c3ccc(Cl)cc3)c(=O)c3ccc(Cl)cc32)cc1)C(=O)O` [Example 99, [7-chloro-3-(4-chlorobenzenesulfonyl)-2,4(1H,3H)-quinazolinedion-1-yl]-N-(4-L-phenylalaninyl)acetamide], 210 nM.
Compound `O=C(O)CCC(=O)Nc1ccc(Cn2c(=O)n(S(=O)(=O)c3ccc(Cl)cc3)c(=O)c3ccc(Cl)cc32)cc1` [Example 73] showed a 50% inhibitory concentration (IC50) of 2300 nM.
For `O=C(Cn1c(=O)n(S(=O)(=O)c2ccc(Cl)cc2)c(=O)c2ccc(Cl)cc21)Nc1ccc(C(=O)O)cc1` [Example 43, [7-chloro-3-(4-chlorobenzenesulfonyl)-2,4(1H,3H)-quinazolinedion-1-yl]-N-(4-carboxyphenyl)-acetamide] the value was 420 nM; for `O=C(Cn1c(=O)n(S(=O)(=O)c2ccc(Cl)cc2)c(=O)c2ccc(Cl)cc21)Nc1ccccn1` [Example 55, [7-chloro-3-(4-chlorobenzenesulfonyl)-2,4(1H,3H)-quinazolinedion-1-yl]-N-(2-pyridyl)acetamide], 72 nM.
`O=C(Cn1c(=O)n(S(=O)(=O)c2ccc(Cl)cc2)c(=O)c2ccc(Cl)cc21)Nc1ccc(C(=O)O)cc1C(=O)O` [Example 101, [7-chloro-3-(4-chlorobenzenesulfonyl)-2,4 (1H,3H)-quinazolinedion-1-yl]-N-(2,4-dicarboxylphenyl)acetamide] yielded an IC50 of 280 nM.
For `CC[n+]1cccc(NC(=O)Cn2c(=O)n(S(=O)(=O)c3ccc(OC)cc3)c(=O)c3ccc(Cl)cc32)c1` [Example 90] the value was 130 nM.
The result for `NCc1ccc(NC(=O)Cn2c(=O)n(S(=O)(=O)c3ccc(Cl)cc3)c(=O)c3ccc(Cl)cc32)cc1` [Example 46, [7-chloro-3-(4-chlorobenzenesulfonyl)-2,4(1H,3H)-quinazolinedion-1-yl]-N-(4-aminomethylphenyl)acetamide] reads 320 nM.
The result for `O=C(Cn1c(=O)n(S(=O)(=O)c2ccc(Cl)cc2)c(=O)c2ccc(Cl)cc21)Nc1cccc2ncccc12` [Example 91, [7-chloro-3-(4-chlorobenzenesulfonyl)-2,4(1H,3H)-quinazolinedion-1-yl]-N-(5-quinolyl)acetamide] reads 180 nM; that for `O=C(Cn1c(=O)n(S(=O)(=O)c2ccc(Cl)cc2)c(=O)c2ccc(Cl)cc21)Nc1ccncn1` [Example 85, [7-chloro-3-(4-chlorobenzenesulfonyl)-2,4(1H,3H)-quinazolinedion-1-yl]-N-(4-pyrimidinyl)acetamide], 190 nM; that for `N[C@@H](CC(=O)O)C(=O)NCc1ccc(NC(=O)Cn2c(=O)n(S(=O)(=O)c3ccc(Cl)cc3)c(=O)c3ccc(Cl)cc32)cc1` [Example 48, [7-chloro-3-(4-chlorobenzenesulfonyl)-2,4(1H,3H)-quinazolinedion-1-yl]-N-(4-α-L-aspartylaminomethylphenyl)acetamide], 500 nM.
Consider `CC(=O)c1ccc(S(=O)(=O)n2c(=O)[nH]c3cc(Cl)ccc3c2=O)cc1` [Example 149, 3-(4-acetylbenzenesulfonyl)-7-chloro-2,4(1H,3H)-quinazolinedione], for which the IC50 turned out to be 570 nM.
For `O=C(O)CNC(=O)c1cccc(Cn2c(=O)n(S(=O)(=O)c3ccc(Cl)cc3)c(=O)c3ccc(Cl)cc32)c1` [Example 70, 3-(7-chloro-3-(4-chlorobenzenesulfonyl)-2,4(1H,3H)-quinazolinedion-1-yl)methylbenzoylglycine] the value was 230 nM; for `O=C(Cn1c(=O)n(S(=O)(=O)c2ccc(-c3cc[nH]n3)cc2)c(=O)c2ccc(Cl)cc21)Nc1cccnc1` [Example 121, {7-chloro-3-[4-(3-pyrazolyl)benzenesulfonyl]-2,4(1H,3H)-quinazolinedion-1-yl}-N-(3-pyridlyl)acetamide], 340 nM; for `N=C(N)Nc1ccc(Cn2c(=O)n(S(=O)(=O)c3ccc(Cl)cc3)c(=O)c3ccc(Cl)cc32)cc1` [Example 107, 7-chloro-3-(4-chlorobenzenesulfonyl)-1-(4-guanidinobenzyl)-2,4(1H,3H)-quinazolinedione], 230 nM.
For `O=C(Cn1c(=O)n(S(=O)(=O)c2ccc(Cl)cc2)c(=O)c2ccc(Cl)cc21)Nc1cccc(OP(=O)(O)O)c1` [Example 105] the value was 25 nM; for `N[C@@H](CC(=O)NCc1cccc(NC(=O)Cn2c(=O)n(S(=O)(=O)c3ccc(Cl)cc3)c(=O)c3ccc(Cl)cc32)c1)C(=O)O` [Example 52, [7-chloro-3-(4-chlorobenzenesulfonyl)-2,4(1H,3H)-quinazolinedion-1-yl]-N-(3-β-L-aspartylaminomethylphenyl)acetamide], 110 nM; for `O=C(Cn1c(=O)n(S(=O)(=O)c2ccc(Cl)cc2)c(=O)c2ccc(Cl)cc21)Nc1ccccc1` [Example 38, [7-chloro-3-(4-chlorobenzenesulfonyl)-2,4(1H,3H)-quinazolinedion-1-yl]-N-phenylacetamide], 63 nM.
The result for `N#Cc1ccc(Cn2c(=O)n(S(=O)(=O)c3ccc(Cl)cc3)c(=O)c3ccc(Cl)cc32)cc1` [Example 60, 7-chloro-3-(4-chlorobenzenesulfonyl)-1-(4-cyanobenzyl)-2,4(1H,3H)-quinazolinedione] reads 340 nM; that for `O=C(Cn1c(=O)n(S(=O)(=O)c2ccc(Cl)cc2)c(=O)c2ccc(Cl)cc21)Nc1cccnc1` [Example 53, [7-chloro-3-(4-chlorobenzenesulfonyl)-2,4(1H,3H)-quinazolinedion-1-yl]-N-(3-pyridyl)acetamide], 50 nM; that for `O=c1[nH]c2cc(Cl)ccc2c(=O)n1S(=O)(=O)c1ccc[nH]1` [Example 125, 7-chloro-3-(pyrrole-2-sulfonyl)-2,4(1H,3H)-quinazolinedione], 29000 nM.
With `N[C@@H](CC(=O)NCc1ccc(NC(=O)Cn2c(=O)n(S(=O)(=O)c3ccc(Cl)cc3)c(=O)c3ccc(Cl)cc32)cc1)C(=O)O` [Example 50, [7-chloro-3-(4-chlorobenzenesulfonyl)-2,4(1H,3H)-quinazolinedion-1-yl]-N-(4-β-L-aspartylaminomethylphenyl)acetamide], the half-maximal inhibitory concentration (IC50) worked out at 330 nM.
For `O=c1[nH]c2cc(Cl)ccc2c(=O)n1S(=O)(=O)c1ccc(C(F)(F)F)cc1` [Example 136, 7-chloro-3-(4-trifluoromethylbenzenesulfonyl)-2,4(1H,3H)-quinazolinedione] the value was 460 nM.

What is called IC50 is the point on the concentration scale where inhibition reaches its midpoint. A lower IC50 goes with higher potency.
